Columns and labels:
[1] = Antibiotic iontophoresis in sheep tibia, antibiotic concentration in bone samples; conditions: 1% solution, 100 volts
Experimental: Quantitative analysis was then carried out to test iontophoresis as a means of antibiotic delivery in allograft bone. Specimens of sheep tibia were prepared as described above. […] A potential difference of 100 volts was applied for 1 minute, 5 minutes or 10 minutes with controls being set up the same way for 10 minutes except no potential difference was applied. A recording of current passed for each specimen was made.
Each sample was then washed in water and dried. Samples from 10 the endosteal and periosteal surfaces were then taken by drilling the bone using a 3 mm low speed drill, in 10 positions on each surface, and crushed to a fine powder. To a known mass of each sample was added distilled water (2 ml) and the sample agitated using ultrasound. The sample was then centrifuged and the supernatant removed and the process repeated a further 2 times. The last wash was left to soak for 12 hours before centrifuging. […] The supernatant solutions were then analysed for antibiotic content; for gentamicin using Fluorescence Polarisation Immuno Assay (Abbot Axsym Analyser); and for flucloxacillin the assays were performed using High Performance Liquid Chromatography (HPLC) technique. From the levels in the supernatant solutions, the antibiotic concentrations in the bone samples were calculated. […]

[2] = test system: Staphylococcus aureus; conditions: varies with different phage types; cited from earlier work

gentamicin Sulphate
plateau level in endosteal and periosteal specimens [1]: about 150 mg/Kg | minimum inhibitory concentration [2]: approximately 0.25 mg/L

Source: US6602296B1, “Chemical supplementation of bone” (The University of Western Australia, priority 1997, dated 2003)
